Assay results: ChEMBL document CHEMBL1137358, “Synthetic inhibitors of cytochrome P-450 2A6: inhibitory activity, difference spectra, mechanism of inhibition, and protein cocrystallization” (J Med Chem, 2006)

Columns and labels:
Cytochrome P450 2D6 = Cytochrome P450 2D6 (Homo sapiens, UniProt P10635); experiment: Inhibition of human CYP2D6
Cytochrome P450 2C9 = Cytochrome P450 2C9 (Homo sapiens, UniProt P11712); experiment: Inhibition of human CYP2C9
Cytochrome P450 2B6 = target: T1, Cytochrome P450 2B6 (Homo sapiens, UniProt P20813); experiment: Inhibition of human CYP2B6
T1 sequence (P20813 whole entry): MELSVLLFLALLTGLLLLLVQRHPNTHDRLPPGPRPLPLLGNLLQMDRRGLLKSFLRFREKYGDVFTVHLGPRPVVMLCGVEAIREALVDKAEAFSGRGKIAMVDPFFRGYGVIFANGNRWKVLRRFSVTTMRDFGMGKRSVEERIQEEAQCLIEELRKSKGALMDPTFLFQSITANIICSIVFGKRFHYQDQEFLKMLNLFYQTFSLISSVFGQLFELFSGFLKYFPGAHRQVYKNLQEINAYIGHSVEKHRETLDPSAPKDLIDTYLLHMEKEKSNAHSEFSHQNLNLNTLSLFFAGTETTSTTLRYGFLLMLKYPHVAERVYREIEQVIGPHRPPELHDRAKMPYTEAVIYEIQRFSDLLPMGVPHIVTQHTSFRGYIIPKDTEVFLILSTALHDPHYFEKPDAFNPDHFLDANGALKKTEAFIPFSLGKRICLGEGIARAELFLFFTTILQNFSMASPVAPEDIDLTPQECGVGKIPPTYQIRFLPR

CYP2A6 over CYP2C19 = experiment: Selectivity for CYP2A6 over CYP2C19; conditions: human
Cytochrome P450 3A4 = Cytochrome P450 3A4 (Homo sapiens, UniProt P08684); experiment: Inhibition of human CYP3A4
Chain of Cytochrome P450 3A4 (P08684 whole entry): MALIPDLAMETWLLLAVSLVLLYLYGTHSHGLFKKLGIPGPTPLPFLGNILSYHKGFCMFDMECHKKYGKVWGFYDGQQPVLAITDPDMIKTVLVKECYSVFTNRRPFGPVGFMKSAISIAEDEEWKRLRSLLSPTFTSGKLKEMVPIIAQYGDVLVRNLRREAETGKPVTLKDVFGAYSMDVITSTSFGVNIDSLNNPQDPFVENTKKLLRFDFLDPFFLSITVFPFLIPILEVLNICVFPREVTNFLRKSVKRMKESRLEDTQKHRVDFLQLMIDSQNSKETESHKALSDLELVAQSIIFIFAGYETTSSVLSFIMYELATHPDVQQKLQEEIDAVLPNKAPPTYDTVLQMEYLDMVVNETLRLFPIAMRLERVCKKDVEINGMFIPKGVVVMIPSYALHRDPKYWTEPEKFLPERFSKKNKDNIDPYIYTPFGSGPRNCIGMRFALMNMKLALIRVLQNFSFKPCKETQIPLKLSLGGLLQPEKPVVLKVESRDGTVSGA

Cytochrome P450 2E1 = Cytochrome P450 2E1 (Homo sapiens, UniProt P05181); experiment: Inhibition of human CYP2E1
Chain of Cytochrome P450 2E1 (P05181 whole entry): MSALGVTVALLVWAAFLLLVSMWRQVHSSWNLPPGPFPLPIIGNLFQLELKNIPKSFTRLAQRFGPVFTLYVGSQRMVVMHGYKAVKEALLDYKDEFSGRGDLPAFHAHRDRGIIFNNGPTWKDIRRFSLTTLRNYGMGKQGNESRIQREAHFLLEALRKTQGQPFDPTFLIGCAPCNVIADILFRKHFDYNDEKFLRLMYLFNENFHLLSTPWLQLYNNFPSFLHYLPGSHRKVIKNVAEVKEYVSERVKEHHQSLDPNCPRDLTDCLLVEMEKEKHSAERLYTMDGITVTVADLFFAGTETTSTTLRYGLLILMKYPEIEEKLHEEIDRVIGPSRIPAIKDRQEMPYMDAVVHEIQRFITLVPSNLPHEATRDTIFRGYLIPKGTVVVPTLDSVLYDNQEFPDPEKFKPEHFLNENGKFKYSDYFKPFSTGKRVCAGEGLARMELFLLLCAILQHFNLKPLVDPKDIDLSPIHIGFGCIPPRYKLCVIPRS

[1] = Stability in human liver microsome
[2] = Stability in mouse liver microsome
Cytochrome P450 2C19 = Cytochrome P450 2C19 (Homo sapiens, UniProt P33261); experiment: Inhibition of human CYP2C19
Chain of Cytochrome P450 2C19 (P33261 whole entry): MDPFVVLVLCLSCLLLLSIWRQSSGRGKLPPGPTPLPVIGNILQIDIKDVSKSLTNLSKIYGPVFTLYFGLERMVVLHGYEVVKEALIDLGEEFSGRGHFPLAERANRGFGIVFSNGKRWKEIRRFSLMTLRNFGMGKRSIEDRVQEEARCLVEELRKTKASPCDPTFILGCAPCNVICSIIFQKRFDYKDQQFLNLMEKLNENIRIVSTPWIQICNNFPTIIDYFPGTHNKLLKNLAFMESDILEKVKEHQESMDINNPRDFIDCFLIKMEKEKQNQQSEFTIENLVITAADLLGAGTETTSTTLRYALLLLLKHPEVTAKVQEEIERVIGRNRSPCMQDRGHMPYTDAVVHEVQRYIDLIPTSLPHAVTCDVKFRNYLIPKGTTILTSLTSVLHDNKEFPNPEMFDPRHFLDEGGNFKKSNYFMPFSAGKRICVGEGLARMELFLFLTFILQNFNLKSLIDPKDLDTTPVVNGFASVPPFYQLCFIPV

CYP2A6 over CYP2D6 = experiment: Selectivity for CYP2A6 over CYP2D6; conditions: human
CYP2A6 over CYP2C9 = experiment: Selectivity for CYP2A6 over CYP2C9; conditions: human
CYP2A6 over CYP2E1 = experiment: Selectivity for CYP2A6 over CYP2E1; conditions: human
Cytochrome P450 2A6 = target: T2, Cytochrome P450 2A6 (Homo sapiens, UniProt P11509); experiment: Inhibition of human CYP2A6
T2 sequence (P11509 whole entry): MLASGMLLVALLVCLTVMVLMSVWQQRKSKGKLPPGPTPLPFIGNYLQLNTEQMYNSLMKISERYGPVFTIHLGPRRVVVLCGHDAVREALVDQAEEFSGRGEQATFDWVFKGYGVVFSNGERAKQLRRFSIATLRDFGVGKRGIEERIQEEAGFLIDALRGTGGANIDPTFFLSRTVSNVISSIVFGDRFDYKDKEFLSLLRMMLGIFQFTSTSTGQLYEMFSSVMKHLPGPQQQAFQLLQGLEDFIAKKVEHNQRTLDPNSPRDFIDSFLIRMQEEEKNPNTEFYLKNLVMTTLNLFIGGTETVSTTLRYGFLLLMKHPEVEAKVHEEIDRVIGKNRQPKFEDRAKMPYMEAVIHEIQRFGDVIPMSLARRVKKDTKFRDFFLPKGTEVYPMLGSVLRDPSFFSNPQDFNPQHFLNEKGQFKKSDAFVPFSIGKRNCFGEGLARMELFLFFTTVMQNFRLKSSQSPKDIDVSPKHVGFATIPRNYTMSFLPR

CYP2A6 over CYP3A4 = experiment: Selectivity for CYP2A6 over CYP3A4; conditions: human
CYP2A6 over CYP2B6 = experiment: Selectivity for CYP2A6 over CYP2B6

Chain of Cytochrome P450 2D6 (P10635 whole entry): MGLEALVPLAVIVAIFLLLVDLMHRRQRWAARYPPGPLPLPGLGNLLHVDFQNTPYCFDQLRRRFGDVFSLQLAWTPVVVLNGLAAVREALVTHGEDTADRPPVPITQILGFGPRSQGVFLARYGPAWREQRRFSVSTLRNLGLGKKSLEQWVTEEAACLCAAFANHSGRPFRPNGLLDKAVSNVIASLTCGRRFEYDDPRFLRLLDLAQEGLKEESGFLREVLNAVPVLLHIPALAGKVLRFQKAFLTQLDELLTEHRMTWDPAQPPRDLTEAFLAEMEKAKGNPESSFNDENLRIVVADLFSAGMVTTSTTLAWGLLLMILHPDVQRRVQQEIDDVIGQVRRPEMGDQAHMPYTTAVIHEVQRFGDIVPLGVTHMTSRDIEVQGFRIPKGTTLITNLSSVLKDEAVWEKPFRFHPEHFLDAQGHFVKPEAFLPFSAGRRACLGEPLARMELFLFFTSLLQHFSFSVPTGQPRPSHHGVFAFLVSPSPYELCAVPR
Chain of Cytochrome P450 2C9 (P11712 whole entry): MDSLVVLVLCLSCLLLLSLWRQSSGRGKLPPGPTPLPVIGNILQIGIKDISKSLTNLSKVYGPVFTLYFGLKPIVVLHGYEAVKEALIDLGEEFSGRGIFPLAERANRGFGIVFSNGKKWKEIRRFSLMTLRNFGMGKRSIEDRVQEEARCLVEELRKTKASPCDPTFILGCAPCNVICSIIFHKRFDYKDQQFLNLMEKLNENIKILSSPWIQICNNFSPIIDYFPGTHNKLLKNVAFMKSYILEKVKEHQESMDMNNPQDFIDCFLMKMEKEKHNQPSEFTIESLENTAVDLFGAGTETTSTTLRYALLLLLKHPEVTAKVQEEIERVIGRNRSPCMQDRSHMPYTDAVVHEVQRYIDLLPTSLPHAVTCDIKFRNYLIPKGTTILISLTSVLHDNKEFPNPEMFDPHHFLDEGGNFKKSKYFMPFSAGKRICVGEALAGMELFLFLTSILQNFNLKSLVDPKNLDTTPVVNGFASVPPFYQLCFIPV

SMILES	Ki (Cytochrome P450 2D6) [µM]	Ki (Cytochrome P450 2C9) [µM]	Ki (Cytochrome P450 2B6) [µM]	Ki (Cytochrome P450 3A4) [µM]	Ki (Cytochrome P450 2E1) [µM]	half-life ([1]; liver microsomes) [min]	half-life ([2]; liver microsomes) [min]	Ki (Cytochrome P450 2C19) [µM]	Ki (Cytochrome P450 2A6) [µM]	half-life ([1]; microsomes) [min]	half-life ([2]; microsomes) [min]	selectivity ratio (CYP2A6 over CYP2C19)	selectivity ratio (CYP2A6 over CYP2D6)	selectivity ratio (CYP2A6 over CYP2C9)	selectivity ratio (CYP2A6 over CYP2E1)	selectivity ratio (CYP2A6 over CYP3A4)	selectivity ratio (CYP2A6 over CYP2B6)
NCc1ccc(-c2cccnc2)o1	5.7	5.9	95.5	23.6	86	37	37	11	–	–	–	81	42	43	–	–	–
Cc1ccsc1-c1cccnc1	–	–	–	–	–	32	41	–	–	–	–	–	–	–	–	–	–
Cc1cscc1-c1ccccc1	> 400	> 400	5.1	> 400	> 400	–	–	> 400	6.2	74	37	32.3	60.6	33.9	2.9	> 400	4.2
NCc1cc(-c2cccnc2)no1	> 400	14.5	33.7	> 400	38.9	401	385	27.5	0.4	–	–	74.3	> 541	39.1	105	> 541	91.1
c1ccc(-c2ccsc2)cc1	> 400	112	14	> 400	9.7	315	92	107	3.3	–	–	> 32.3	> 32.3	> 32.3	> 32.3	> 32.3	0.8
Cc1csc(-c2cccnc2)n1	> 400	51.5	43.5	22.9	9.6	–	–	> 400	4.1	36	49	> 32.3	> 32.3	12.6	2.3	5.6	10.6

Now from value to compound, other results behind:

Ki (Cytochrome P450 2D6) [µM]	Ki (Cytochrome P450 2C9) [µM]	Ki (Cytochrome P450 2B6) [µM]	Ki (Cytochrome P450 3A4) [µM]	Ki (Cytochrome P450 2E1) [µM]	half-life ([1]; liver microsomes) [min]	half-life ([2]; liver microsomes) [min]	Ki (Cytochrome P450 2C19) [µM]	Ki (Cytochrome P450 2A6) [µM]	half-life ([1]; microsomes) [min]	half-life ([2]; microsomes) [min]	SMILES	selectivity ratio (CYP2A6 over CYP2C19)	selectivity ratio (CYP2A6 over CYP2D6)	selectivity ratio (CYP2A6 over CYP2C9)	selectivity ratio (CYP2A6 over CYP2E1)	selectivity ratio (CYP2A6 over CYP3A4)	selectivity ratio (CYP2A6 over CYP2B6)
14.8	0.9	3.8	63	0.8	–	–	41	0.6	37	22	NCc1ccc(-c2ccccc2)o1	6.8	24.6	1.5	1.3	105	6.4
> 400	0.5	0.6	95.5	0.04	–	–	0.9	0.6	84	41	NCc1ccc(-c2ccccc2)s1	1.4	> 333	0.8	0.1	159	1.1
165	172	71.5	> 400	5.2	99	93	109	12.8	–	–	c1cncc(-c2cc[nH]n2)c1	8.5	12.9	13.4	0.4	> 15.6	5.6
84.5	–	–	29.4	20.1	–	–	–	–	39	60	NCc1ccc(-c2cccnc2)s1	–	–	–	–	–	–
29.8	24.2	33.2	> 400	> 400	238	169	41.4	0.3	–	–	NCc1cc(-c2cccnc2)n[nH]1	143	103	83.4	> 690	> 690	114
